Data published in patent US4584186A, “Radiolabelled metallocene derivatives” (Mallinckrodt, Diagnostica (Holland) B.V., priority 1982, dated 1986).
Counter-ions that a name gives are not always drawn. Values belong to the molecule of their own block, whether it stands above or below them.

How the values were obtained:
[1] = renal clearance after administration to dogs (single injection method); assay type: in vivo, dog (beagle); details: for clearance: intravenous; for clearance in words: dog
Procedure: The renal clearance by tubular excretion is a measure for the renal function was determined in two dogs, viz. beagles with body weights of 13.8 kg (dog a) and 14.8 kg (dog b) respectively by the generally recognized single injection method, in broad outline as described in Example VII. As radioactive materials were used iodine-131 labelled o-iodohippuric acid sodium salt (I-131 Hippuran), indium-111 DTPA (diethylene triamine pentaacetic acid) and ruthenium-97 labelled ruthenocenoylglycine. Indium-111DTP is also recommended to be used in radiodiagnostic compositions for examination of the renal glomerular filtration function. The time intervals between the various administrations were chosen in such a way, that no interference between the radioactive materials could occur. The radioactive materials were administered intraveneously, blood samples were collected 5, 10, 15, 30, 60 and 90 minutes after administration. The emitted radioactivity was determined with a gamma camera. The decreasing radioactivity of the successive blood samples is a measure for the elimination of the radioactive compound from the blood.

[2] = urinary excretion and organ distribution in mice with increasing doses of inactive carrier; details: inactive carrier for labelled ruthenocenoylglycine
[3] = organ distribution of radioactivity in mouse; details: approx. 0.5 umole/kg
[4] = rat, in vivo; cited from earlier work
[5] = rabbit, in vivo

Molecule: indium-111 DTPA (diethylene triamine pentaacetic acid) [In - 111 DTPA]
clearance ([1]; dog a, beagle 13.8 kg): 79.6 mL/min | clearance ([1]; dog b, beagle 14.8 kg): 62.2 mL/min | clearance in words ([1]; comparison of the three radioactive compounds): comparatively slow

results when used as inactive carrier instead of ruthenocenoyl- or ferrocenoylglycine [2]: Comparable results
Molecule: Nc1ccc(C(=O)NCC(=O)O)cc1 [para-aminohippuric acid (salt), para-aminohippuric acid]

Molecule: O=C(O)CNC(=O)[c-]1cccc1.[Ru+2].c1cc[cH-]c1 [Ru-97 ruthenocenoylglycine, ruthenium-97 labelled ruthenocenoylglycine]
clearance in words ([1]; in vivo): faster than that of labelled o-iodohippuric acid salt

Molecule: CCOC(=O)CNC(=O)[c-]1cccc1.[Ru+2].c1cc[cH-]c1 [Rc glycine ester, ruthenocenoyl ethylglycinate, labelled with ruthenium-103]
103Ru conc. kidney ([3]; after 1 hour): 141 dose/% body/wt | 103Ru conc. kidney ([3]; after 3 hours): 90 dose/% body/wt | 103Ru conc. kidney ([3]; after 6 hours): 125 dose/% body/wt | 103Ru conc. liver ([3]; after 1 hour): 43 dose/% body/wt | 103Ru conc. liver ([3]; after 3 hours): 24 dose/% body/wt | 103Ru conc. liver ([3]; after 6 hours): 3.5 dose/% body/wt | 103Ru conc. lung ([3]; after 1 hour): 6 dose/% body/wt | 103Ru conc. lung ([3]; after 3 hours): 2.6 dose/% body/wt | 103Ru conc. lung ([3]; after 6 hours): 3.0 dose/% body/wt

results when used as inactive carrier instead of ruthenocenoyl- or ferrocenoylglycine [2]: Comparable results
Molecule: O=C(O)CNC(=O)c1ccccc1I [ortho-iodohippuric acid (salt), ortho-iodohippuric acid]

Molecule: [Ru+2].c1cc[cH-]c1.c1cc[cH-]c1 [ruthenium-103 labelled ruthenocene, ruthenocene]
accumulation of radioactivity in lung and liver relative to kidney [4]: at least equal amounts as in the kidney

Molecule: O=C(O)CNC(=O)[c-]1cccc1.O=C(O)CNC(=O)[c-]1cccc1.[Ru+2] [ruthenocenoyl-1,1'-diglycine]
accumulation in the kidneys and excretion [5]: very rapid accumulation in the kidneys followed by a rapid excretion

Molecule: O=C(O)CNC(=O)[c-]1cccc1.[Ru+2].c1cc[cH-]c1 [Rc glycine, ruthenocenoylglycine, labelled with ruthenium-103]
accumulation in the kidneys and excretion [5]: very rapid accumulation in the kidneys followed by a rapid excretion | renal clearance (general statement) [5]: even faster than that of iodohippuric acid sodium salt labelled with iodine-125 | renal clearance compared with iodine-125 labelled o-iodohippuric acid sodium salt [5]: cleared more rapidly than iodine-125 labelled o-iodohippuric acid sodium salt

Molecule: NC(=O)[c-]1cccc1.[Ru+2].c1cc[cH-]c1 [ruthenocene monocarboxylic acid amide]
accumulation of radioactivity in lung and liver relative to kidney [4]: at least equal amounts as in the kidney
